{
  "source": "patent US10233182B2",
  "about": "“Substituted spirocyclic inhibitors of autotaxin” (X-Rx, Inc., priority 2014, dated 2019)",
  "note": "Counter-ions that a name gives are not always drawn.",
  "data": [
    {"target": "Autotaxin (Homo sapiens (Human), UniProt Q13822)", "assay": "Autotaxin LPC Cascade Assay", "format": "biochemical", "details": "Autotaxin 5 nM, LPC 100 μM, choline oxidase/HRP/Ampliflu Red fluorescence read-out, 2% DMSO, RT; read-out: IC50 ATX Activity", "in_short": "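Choline liberated from LPC by autotaxin during 1 h, after a 10-min RT compound preincubation, was converted through choline oxidase/HRP to a fluorescent Ampliflu Red product.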", "units": {"IC50": "nM"}, "values": [
      {"smiles": "CCc1ccc(F)c(C(=O)N[C@@H](C(=O)N2CCC3(CC2)C(=O)N(C)CN3c2ccc(S(C)(=O)=O)cc2)C(C)C)c1", "note": "[Example 200, (R)-5-Ethyl-2-fluoro-N-(3-methyl-1-(3-methyl-1-(4-(methylsulfonyl)phenyl)-4-oxo-1,3,8-triazaspiro[4.5]decan-8-yl)-1-oxobutan-2-yl)benzamide]", "IC50": "< 500"},
      {"smiles": "CCc1ccc(F)c(C(=O)N[C@@H](C(=O)N2CCC3(CC2)C(=O)N(C)CN3c2ccc(=O)n(C)c2)C(C)C)c1", "note": "[Example 201, (R)-5-Ethyl-2-fluoro-N-(3-methyl-1-(3-methyl-1-(1-methyl-6-oxo-1,6-dihydropyridin-3-yl)-4-oxo-1,3,8-triazaspiro[4.5]decan-8-yl)-1-oxobutan-2-yl)benzamide]", "IC50": "< 500"},
      {"smiles": "CCc1ccc(F)c(C(=O)N[C@@H](C(=O)N2CCC3(CC2)C(=O)N(C)CN3c2ccc(OC)cc2)C(C)C)c1", "note": "[Example 202, (R)-5-Ethyl-2-fluoro-N-(1-(1-(4-methoxyphenyl)-3-methyl-4-oxo-1,3,8-triazaspiro[4.5]decan-8-yl)-3-methyl-1-oxobutan-2-yl)benzamide]", "IC50": "< 500"},
      {"smiles": "CCc1ccc(F)c(C(=O)N[C@@H](C(=O)N2CCC3(CC2)C(=O)N(C)CN3c2ccc3oc(=O)n(C)c3c2)C(C)C)c1", "note": "[Example 203, (R)-5-Ethyl-2-fluoro-N-(3-methyl-1-(3-methyl-1-(3-methyl-2-oxo-2,3-dihydrobenzo[d]oxazol-5-yl)-4-oxo-1,3,8-triazaspiro[4.5]decan-8-yl)-1-oxobutan-2-yl)benzamide]", "IC50": "< 500"},
      {"smiles": "CC(C)[C@@H](NC(=O)c1cc(C(F)(F)F)ccc1F)C(=O)N1CCC2(CC1)C(=O)N(C)CN2c1ccc(=O)n(C)c1", "note": "[Example 204, (R)-2-Fluoro-N-(3-methyl-1-(3-methyl-1-(1-methyl-6-oxo-1,6-dihydropyridin-3-yl)-4-oxo-1,3,8-triazaspiro[4.5]decan-8-yl)-1-oxobutan-2-yl)-5-(trifluoromethyl)benzamide]", "IC50": "< 500"},
      {"smiles": "CC(C)[C@@H](NC(=O)c1cc(C(F)(F)F)ccc1F)C(=O)N1CCC2(CC1)C(=O)N(C)CN2c1ccc(S(C)(=O)=O)cc1", "note": "[Example 205, (R)-2-Fluoro-N-(3-methyl-1-(3-methyl-1-(4-(methylsulfonyl)phenyl)-4-oxo-1,3,8-triazaspiro[4.5]decan-8-yl)-1-oxobutan-2-yl)-5-(trifluoromethyl)benzamide]", "IC50": "< 500"},
      {"smiles": "CC(C)[C@@H](NC(=O)c1cc(C(F)(F)F)ccc1F)C(=O)N1CCC2(CC1)C(=O)N(C)CN2c1ccc2nccn2c1", "note": "[Example 206, (R)-2-Fluoro-N-(1-(1-(imidazo[1,2-a]pyridin-6-yl)-3-methyl-4-oxo-1,3,8-triazaspiro[4.5]decan-8-yl)-3-methyl-1-oxobutan-2-yl)-5-(trifluoromethyl)benzamide trifluoroacetic Acid Salt]", "IC50": "< 500"},
      {"smiles": "CC(C)[C@@H](NC(=O)c1cc(Cl)cc(C(F)(F)F)c1)C(=O)N1CCC2(CC1)C(=O)N(C)CN2c1ccc(=O)n(C)c1", "note": "[Example 207, (R)-3-Chloro-N-(3-methyl-1-(3-methyl-1-(1-methyl-6-oxo-1,6-dihydropyridin-3-yl)-4-oxo-1,3,8-triazaspiro[4.5]decan-8-yl)-1-oxobutan-2-yl)-5-(trifluoromethyl)benzamide]", "IC50": "< 500"},
      {"smiles": "CN1CN(c2ccc(=O)n(C)c2)C2(CCN(C(=O)[C@H](NC(=O)c3cc(C(F)(F)F)ccc3F)C3CCCC3)CC2)C1=O", "note": "[Example 208, (R)—N-(1-Cyclopentyl-2-(3-methyl-1-(1-methyl-6-oxo-1,6-dihydropyridin-3-yl)-4-oxo-1,3,8-triazaspiro[4.5]decan-8-yl)-2-oxoethyl)-2-fluoro-5-(trifluoromethyl)benzamide]", "IC50": "< 500"},
      {"smiles": "COc1ccc(N2C(C)N(C)C(=O)C23CCN(C(=O)[C@H](NC(=O)c2cc(C(F)(F)F)ccc2F)C(C)C)CC3)cc1", "note": "(stereo partly drawn) [Example 209, 2-Fluoro-N-((2R)-1-(1-(4-methoxyphenyl)-2,3-dimethyl-4-oxo-1,3,8-triazaspiro[4.5]decan-8-yl)-3-methyl-1-oxobutan-2-yl)-5-(trifluoromethyl)benzamide]", "IC50": "< 500"},
      {"smiles": "CC(C)[C@@H](NC(=O)c1cc(C(F)(F)F)ccc1F)C(=O)N1CCC2(CC1)C(=O)N(C)[C@H](C)N2c1ccc(C(=O)O)cc1", "note": "[Example 212, 4-((R)-8-((R)-2-(2-Fluoro-5-(trifluoromethyl)benzamido)-3-methylbutanoyl)-2,3-dimethyl-4-oxo-1,3,8-triazaspiro[4.5]decan-1-yl)benzoic Acid]", "IC50": "< 500"},
      {"smiles": "CC(C)[C@@H](NC(=O)c1cc(C(F)(F)F)ccc1F)C(=O)N1CCC2(CC1)C(=O)N(C)[C@@H](C)N2c1ccc(C(=O)O)cc1", "note": "[Example 213, 4-((S)-8-((R)-2-(2-Fluoro-5-(trifluoromethyl)benzamido)-3-methylbutanoyl)-2,3-dimethyl-4-oxo-1,3,8-triazaspiro[4.5]decan-1-yl)benzoic Acid]", "IC50": "< 500"},
      {"smiles": "CC(C)[C@@H](NC(=O)c1cc(C(F)(F)F)ccc1F)C(=O)N1CCC2(CC1)C(=O)N(C)CN2c1ccc2[nH]ncc2c1", "note": "[Example 214, (R)—N-(1-(1-(1H-Indazol-5-yl)-3-methyl-4-oxo-1,3,8-triazaspiro[4.5]decan-8-yl)-3-methyl-1-oxobutan-2-yl)-2-fluoro-5-(trifluoromethyl)benzamide]", "IC50": "< 500"},
      {"smiles": "CCc1ccc(F)c(C(=O)N[C@@H](C(=O)N2CCC3(CC2)C(=O)N(C)CN3c2ccc3[nH]ncc3c2)C(C)C)c1", "note": "[Example 215, (R)—N-(1-(1-(1H-Indazol-5-yl)-3-methyl-4-oxo-1,3,8-triazaspiro[4.5]decan-8-yl)-3-methyl-1-oxobutan-2-yl)-5-ethyl-2-fluorobenzamide]", "IC50": "< 500"},
      {"smiles": "CCc1ccc(F)c(C(=O)N[C@@H](C(=O)N2CCC3(CC2)C(=O)N(C)CN3c2ccc3nc[nH]c3c2)C(C)C)c1", "note": "[Example 216, (R)—N-(1-(1-(1H-Benzo[d]imidazol-6-yl)-3-methyl-4-oxo-1,3,8-triazaspiro[4.5]decan-8-yl)-3-methyl-1-oxobutan-2-yl)-5-ethyl-2-fluorobenzamide]", "IC50": "< 500"},
      {"smiles": "Cc1cccc(C(=O)N[C@@H](C(=O)N2CCC3(CC2)COC(=O)N3c2ccccc2)C(C)C)c1", "note": "[Example 217, (R)-3-Methyl-N-(3-methyl-1-oxo-1-(2-oxo-1-phenyl-3-oxa-1,8-diazaspiro[4.5]decan-8-yl)butan-2-yl)benzamide]", "IC50": "≥ 1000"},
      {"smiles": "CC(C)[C@@H](NC(=O)c1cc(C(F)(F)F)ccc1F)C(=O)N1CCC2(CC1)C(=O)N(C)CN2c1ccc(NC2COC2)cc1", "note": "[Example 218, (R)-2-Fluoro-N-(3-methyl-1-(3-methyl-1-(4-(oxetan-3-ylamino)phenyl)-4-oxo-1,3,8-triazaspiro[4.5]decan-8-yl)-1-oxobutan-2-yl)-5-(trifluoromethyl)benzamide]", "IC50": "< 500"},
      {"smiles": "COC1CC(CN2C(=O)N(C)C(=O)C23CCN(C(=O)[C@H](NC(=O)c2cc(C(F)(F)F)ccc2F)C(C)C)CC3)C1", "note": "(stereo partly drawn) [Example 219, (R)-2-Fluoro-N-(1-(1-((3-methoxycyclobutyl)methyl)-3-methyl-2,4-dioxo-1,3,8-triazaspiro[4.5]decan-8-yl)-3-methyl-1-oxobutan-2-yl)-5-(trifluoromethyl)benzamide]", "IC50": "≥ 1000"},
      {"smiles": "CC(C)[C@@H](NC(=O)c1cc(C(F)(F)F)ccc1F)C(=O)N1CCC2(CC1)C(=O)N(C)CN2c1ccc(-c2nc[nH]n2)cc1", "note": "[Example 220, (R)—N-(1-(1-(4-(1H-1,2,4-Triazol-3-yl)phenyl)-3-methyl-4-oxo-1,3,8-triazaspiro[4.5]decan-8-yl)-3-methyl-1-oxobutan-2-yl)-2-fluoro-5-(trifluoromethyl)benzamide]", "IC50": "< 500"},
      {"smiles": "COC(=O)c1ccc(N2C(=O)N(C)C(=O)C23CCN(C(=O)[C@H](NC(=O)c2cc(C(F)(F)F)ccc2F)C(C)C)CC3)cc1", "note": "[Example 221, (R)-Methyl-4-(8-(2-(2-fluoro-5-(trifluoromethyl)benzamido)-3-methylbutanoyl)-3-methyl-2,4-dioxo-1,3,8-triazaspiro[4.5]decan-1-yl)benzoate]", "IC50": "< 500"},
      {"smiles": "CC(C)[C@@H](NC(=O)c1cc(C2CC2)ccc1F)C(=O)N1CCC2(CC1)C(=O)N(C)C(=O)N2c1ccc(C(=O)O)cc1", "note": "[Example 222, (R)-4-(8-(2-(5-Cyclopropyl-2-fluorobenzamido)-3-methylbutanoyl)-3-methyl-2,4-dioxo-1,3,8-triazaspiro[4.5]decan-1-yl)benzoic Acid]", "IC50": "< 500"},
      {"smiles": "CC(C)[C@@H](NC(=O)c1cc(C(F)(F)F)ccc1F)C(=O)N1CCC2(CC1)C(=O)N(C)C(=O)N2c1ccc(C(=O)O)cc1", "note": "[Example 223, (R)-4-(8-(2-(2-Fluoro-5-(trifluoromethyl)benzamido)-3-methylbutanoyl)-3-methyl-2,4-dioxo-1,3,8-triazaspiro[4.5]decan-1-yl)benzoic Acid]", "IC50": "< 500"},
      {"smiles": "CC(C)[C@@H](NC(=O)c1cc(C(F)(F)F)ccc1F)C(=O)N1CCC2(CC1)C(=O)N(C)C(=O)N2c1ccc(-c2nn[nH]n2)cc1", "note": "[Example 224, (R)—N-(1-(1-(4-(2H-Tetrazol-5-yl)phenyl)-3-methyl-2,4-dioxo-1,3,8-triazaspiro[4.5]decan-8-yl)-3-methyl-1-oxobutan-2-yl)-2-fluoro-5-(trifluoromethyl)benzamide]", "IC50": "< 500"},
      {"smiles": "CC(C)[C@@H](NC(=O)c1cc(OC(F)(F)F)ccc1F)C(=O)N1CCC2(CC1)C(=O)N(C)C(=O)N2c1ccc(-c2nn[nH]n2)cc1", "note": "[Example 225, (R)—N-(1-(1-(4-(2H-Tetrazol-5-yl)phenyl)-3-methyl-2,4-dioxo-1,3,8-triazaspiro[4.5]decan-8-yl)-3-methyl-1-oxobutan-2-yl)-2-fluoro-5-(trifluoromethoxy)benzamide]", "IC50": "< 500"},
      {"smiles": "CC(C)[C@@H](NC(=O)c1cc(OC(F)F)ccc1F)C(=O)N1CCC2(CC1)C(=O)N(C)C(=O)N2c1ccc(-c2nn[nH]n2)cc1", "note": "[Example 226, (R)—N-(1-(1-(4-(2H-Tetrazol-5-yl)phenyl)-3-methyl-2,4-dioxo-1,3,8-triazaspiro[4.5]decan-8-yl)-3-methyl-1-oxobutan-2-yl)-5-(difluoromethoxy)-2-fluorobenzamide]", "IC50": "< 500"}
    ]}
  ]
}
